We go through six molecules from publication PMC10531082, “Antiproliferative and Antimetastatic Properties of 16-Azidomethyl Substituted 3-O-Benzyl Estrone Analogs” (International Journal of Molecular Sciences, 2023).

Data set [1] has as its system SiHa. Nature of the data set: cells. Further details: MTT antiproliferative assay, absorbance at 545 nm, inhibition versus untreated control. Particulars: Homo sapiens; for inhibition at 10 µM / inhibition at 30 µM: read-out: Growth inhibition (%) SiHa. Here is the method:
(§1) The antiproliferative capacities of the prepared compounds were determined by employing the MTT assay against a panel of human adherent cancer cell lines isolated from breast (MCF-7 and MDA-MB-231) or cervical (HeLa and SiHa) tumors. All compounds were tested at two concentrations (10 and 30 μM). When >50% of antiproliferative capacity was obtained at 10 μM, the assays were repeated with a broader concentration range (0.1–30 μM), and IC50 values were calculated (Figure 2, Supplementary Table S1, Supplementary Figure S1). […] MTT assays were performed against the non-cancerous fibroblast cell line NIH/3T3 to obtain preliminary data on cancer selectivity of 16AABE and 16BABE. […] The ratios of IC50 values obtained against cancer cells and fibroblasts were in the range of 0.2 and 0.5, indicating substantial cancer selectivity of these two compounds (Table 1). Cancer cells were seeded onto a 96-well microplate for the proliferation assay at a density of 5000 cells/well. After 24 h of incubation, 200 μL of new medium containing the test compounds at 10 or 30 µM concentrations was added. Absorbance of the reduced MTT solution was measured at 545 nm using a microplate reader, with untreated cells serving as the negative control. In the case of active compounds (i.e., >50% cell growth inhibition at 10 μM), the assay was repeated with a series of dilutions, and sigmoidal dose–response curves were fitted to the obtained data. The IC50 values, representing the concentration at which cell proliferation was reduced by 50% compared with the untreated control, were calculated using GraphPad Prism 5 (GraphPad Software, San Diego, CA, USA). Each in vitro experiment was conducted on two microplates with a minimum of five parallel wells. […] Cisplatin was used as a reference agent.

The test system of data set [2] is HeLa. In words: cells. As to conditions: Homo sapiens; for inhibition at 10 µM / inhibition at 30 µM: read-out: Growth inhibition (%) HeLa. Further details: MTT antiproliferative assay, absorbance at 545 nm, inhibition versus untreated control. Here is the method: as §1
The test system of data set [3] is MDA-MB-231. Nature of the data set: cells. Further details: MTT antiproliferative assay, absorbance at 545 nm, inhibition versus untreated control. Particulars: Homo sapiens; for inhibition at 10 µM / inhibition at 30 µM: read-out: Growth inhibition (%) MDA-MB-231. Here is the method:
as §1

The test system of data set [4] is MCF-7. Nature of the data set: cells. Further details: MTT antiproliferative assay, absorbance at 545 nm, inhibition versus untreated control. Particulars: Homo sapiens, MCF7; for inhibition at 10 µM / inhibition at 30 µM: read-out: Growth inhibition (%) MCF-7. The protocol: as §1
Data set [5] relates to SiHa. Nature of the data set: cells. Further details: MTT assay, growth inhibition of cells relative to untreated control. As to conditions: Homo sapiens, SiHa; for inhibition at 10 µM: read-out: Growth inhibition (%) at 10 uM; for inhibition at 30 µM: read-out: Growth inhibition (%) at 30 uM. Here is the method: (§2) Cancer cells were seeded onto a 96-well microplate for the proliferation assay at a density of 5000 cells/well. After 24 h of incubation, 200 μL of new medium containing the test compounds at 10 or 30 µM concentrations was added. Absorbance of the reduced MTT solution was measured at 545 nm using a microplate reader, with untreated cells serving as the negative control. In the case of active compounds (i.e., >50% cell growth inhibition at 10 μM), the assay was repeated with a series of dilutions, and sigmoidal dose–response curves were fitted to the obtained data. The IC50 values, representing the concentration at which cell proliferation was reduced by 50% compared with the untreated control, were calculated using GraphPad Prism 5 (GraphPad Software, San Diego, CA, USA). Each in vitro experiment was conducted on two microplates with a minimum of five parallel wells. […] Cisplatin was used as a reference agent. The antiproliferative capacities of the prepared compounds were determined by employing the MTT assay against a panel of human adherent cancer cell lines isolated from breast (MCF-7 and MDA-MB-231) or cervical (HeLa and SiHa) tumors. All compounds were tested at two concentrations (10 and 30 μM). When >50% of antiproliferative capacity was obtained at 10 μM, the assays were repeated with a broader concentration range (0.1–30 μM), and IC50 values were calculated (Figure 2, Supplementary Table S1, Supplementary Figure S1). […] MTT assays were performed against the non-cancerous fibroblast cell line NIH/3T3 to obtain preliminary data on cancer selectivity of 16AABE and 16BABE. […] The ratios of IC50 values obtained against cancer cells and fibroblasts were in the range of 0.2 and 0.5, indicating substantial cancer selectivity of these two compounds (Table 1).

Another data set relates to NIH/3T3. In words: cells. Further details: MTT assay, growth inhibition of cells relative to untreated control. As to conditions: Mus musculus, NIH3T3; read-out: Growth inhibition (%) at 30 uM. Here is the method: as §2
For data set [6], the system named is HeLa. Nature of the data set: cells. Further details: MTT assay, growth inhibition of cells relative to untreated control. As to conditions: Homo sapiens, HeLa; for inhibition at 10 µM: read-out: Growth inhibition (%) at 10 uM; for inhibition at 30 µM: read-out: Growth inhibition (%) at 30 uM. Here is the method: as §2
The subject of data set [7] is MDA-MB-231. Nature of the data set: cells. Further details: MTT assay, growth inhibition of cells relative to untreated control. As to conditions: Homo sapiens, MDA-MB-231; for inhibition at 10 µM: read-out: Growth inhibition (%) at 10 uM; for inhibition at 30 µM: read-out: Growth inhibition (%) at 30 uM. The protocol:
as §2

Data set [8] relates to MCF-7. In words: cells. Further details: MTT assay, growth inhibition of cells relative to untreated control. Particulars: Homo sapiens, MCF7; for inhibition at 10 µM: read-out: Growth inhibition (%) at 10 uM; for inhibition at 30 µM: read-out: Growth inhibition (%) at 30 uM. Here is the method: as §2
Another data set is described as follows: in vitro. Further details: MTT assay on non-cancerous NIH/3T3 fibroblasts, absorbance at 545 nm, selectivity counter-screen. As to conditions: mouse, nih/3t3 cells; read-out: IC50 NIH/3T3. Here is the method:
The antiproliferative capacities of the prepared compounds were determined by employing the MTT assay against a panel of human adherent cancer cell lines isolated from breast (MCF-7 and MDA-MB-231) or cervical (HeLa and SiHa) tumors. All compounds were tested at two concentrations (10 and 30 μM). When >50% of antiproliferative capacity was obtained at 10 μM, the assays were repeated with a broader concentration range (0.1–30 μM), and IC50 values were calculated (Figure 2, Supplementary Table S1, Supplementary Figure S1). […] MTT assays were performed against the non-cancerous fibroblast cell line NIH/3T3 to obtain preliminary data on cancer selectivity of 16AABE and 16BABE. […] The ratios of IC50 values obtained against cancer cells and fibroblasts were in the range of 0.2 and 0.5, indicating substantial cancer selectivity of these two compounds (Table 1). The antiproliferative activity of the presented compounds were evaluated against a panel of human gynecological cancer cell lines. MCF-7 and MDA-MB-231 cell lines were derived from breast cancers, while HeLa and SiHa cell lines originated from cervical cancers of different pathological backgrounds. […] Absorbance of the reduced MTT solution was measured at 545 nm using a microplate reader, with untreated cells serving as the negative control. […]

Another data set deals with T1, estrogen receptor (ERα) (Homo sapiens, UniProt P03372).
T1 construct: gene ESR1
In words: estrogen-responsive luciferase reporter assay in T47D-KBluc cells (agonism). Format: cell-based.

Structures are written as SMILES. Like-named read-outs stand apart in the source and are kept apart here.

T1 sequence (P03372 whole entry): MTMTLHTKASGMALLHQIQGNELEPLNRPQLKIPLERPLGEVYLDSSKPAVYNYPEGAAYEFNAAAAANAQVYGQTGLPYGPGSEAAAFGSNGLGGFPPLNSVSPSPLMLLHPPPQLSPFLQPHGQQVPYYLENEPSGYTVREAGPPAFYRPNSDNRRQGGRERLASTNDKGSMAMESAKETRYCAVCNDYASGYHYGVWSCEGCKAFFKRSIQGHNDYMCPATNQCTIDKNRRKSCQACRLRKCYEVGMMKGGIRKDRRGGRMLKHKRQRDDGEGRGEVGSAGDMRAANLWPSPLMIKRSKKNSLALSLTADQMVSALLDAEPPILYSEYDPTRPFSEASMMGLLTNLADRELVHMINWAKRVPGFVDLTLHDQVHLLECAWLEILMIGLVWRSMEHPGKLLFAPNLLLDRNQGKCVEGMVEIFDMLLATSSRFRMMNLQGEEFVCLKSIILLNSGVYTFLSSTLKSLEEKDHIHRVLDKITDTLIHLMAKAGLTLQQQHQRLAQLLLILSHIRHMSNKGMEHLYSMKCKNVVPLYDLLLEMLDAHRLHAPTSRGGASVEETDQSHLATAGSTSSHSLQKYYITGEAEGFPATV

In the case of `C[C@]12CC[C@@H]3c4ccc(OCc5ccccc5)cc4CC[C@H]3[C@@H]1C[C@@H](CN=[N+]=[N-])[C@H]2O` [compound 4, 4], the inhibition at 10 µM is < 20% in the data set on SiHa [1], 26.6 ± 1.78% with HeLa [2], 25.1 ± 2.83% with MDA-MB-231 [3] and < 20% in the data set with MCF-7 [4]. Further, the inhibition at 30 µM with SiHa [1] is 31.9 ± 0.69%; in the data set on HeLa [2], 52.89 ± 0.49%; in the data set with MDA-MB-231 [3] it was 57.3 ± 0.98%; in the data set with MCF-7 [4] it was 52.4 ± 2.5%.

With `C[C@]12CC[C@@H]3c4ccc(OCc5ccccc5)cc4CC[C@H]3[C@@H]1C[C@@H](CN=[N+]=[N-])C2=O` [16AABE, 16α-azidomethyl-3-benzyloxyestra-1,3,5(10)-trien-17-on], the inhibition at 10 µM is 90.1 ± 0.66% with SiHa [5], 93.22 ± 0.92% in the data set with HeLa [6], 93.53 ± 0.17% in the data set on MDA-MB-231 [7] and 91.73 ± 0.71% in the data set on MCF-7 [8]. In addition, the inhibition at 30 µM with SiHa [5] is 91.48 ± 0.55%; with NIH/3T3 it was 98.29 ± 0.41%; with HeLa [6], 93.96 ± 0.23%; with MDA-MB-231 [7], 95.11 ± 0.31%; in the data set with MCF-7 [8], 93.85 ± 0.22%. The IC50 with SiHa [1] turned out to be 4.1 µM; in the data set on HeLa [2] it was 5.01 µM; in the data set with MDA-MB-231 [3], 4.72 µM; with MCF-7 [4], 3.13 µM. In addition, in the data set “in vitro”, the CC50 is 13.6 µM.

As to `C[C@]12CC[C@@H]3c4ccc(OCc5ccccc5)cc4CC[C@H]3[C@@H]1C[C@H](CN=[N+]=[N-])[C@@H]2O` [compound 1, 1], the inhibition at 10 µM was < 20% in the data set on SiHa [1], 33.97 ± 0.33% in the data set on HeLa [2], 34.07 ± 0.27% with MDA-MB-231 [3] and 38.8 ± 0.81% in the data set on MCF-7 [4]. Also, the inhibition at 30 µM in the data set with SiHa [1] was found to be 89.93 ± 0.2%; in the data set with HeLa [2] it was 93.1 ± 0.21%; in the data set with MDA-MB-231 [3], 92.92 ± 0.09%; in the data set on MCF-7 [4], 92.64 ± 0.22%.

Take `C[C@]12CC[C@@H]3c4ccc(OCc5ccccc5)cc4CC[C@H]3[C@@H]1C[C@H](CN=[N+]=[N-])C2=O` [16BABE, 16β-azidomethyl-3-benzyloxyestra-1,3,5(10)-trien-17-on]: the inhibition at 10 µM in the data set on SiHa [5] was 90.73 ± 0.53%; in the data set on HeLa [6] it was 93.4 ± 0.13%; in the data set on MDA-MB-231 [7], 93.65 ± 0.24%; in the data set with MCF-7 [8], 92.94 ± 0.37%. The inhibition at 30 µM came to 91.08 ± 0.55% in the data set on SiHa [5]; 94.8 ± 1.63% with NIH/3T3; 94.33 ± 0.32% with HeLa [6]; 95.03 ± 0.23% with MDA-MB-231 [7]; 93.79 ± 0.4% in the data set on MCF-7 [8]. Moreover, the IC50 turned out to be 3.85 µM in the data set with SiHa [1], 4.6 µM in the data set on HeLa [2], 8.13 µM with MDA-MB-231 [3] and 3.15 µM in the data set on MCF-7 [4]. Also, the EC50 at estrogen receptor (ERα) is ~0.178 µM. Besides, the CC50 in “in vitro” is 18.9 µM.

`C[C@]12CC[C@@H]3c4ccc(OCc5ccccc5)cc4CC[C@H]3[C@@H]1C[C@H](CN=[N+]=[N-])[C@H]2O` [compound 2, 2]: the inhibition at 30 µM with SiHa [1] is 43.2 ± 2.58%; with HeLa [2] it was 55.5 ± 2.06%; with MDA-MB-231 [3], 64.2 ± 1.39%; with MCF-7 [4] it was 51.9 ± 1.85%. In addition, the inhibition at 10 µM in the data set on HeLa [2] came to 29.1 ± 1.06%; in the data set with MDA-MB-231 [3] it was 45.1 ± 1.69%; in the data set on MCF-7 [4], 20.2 ± 2.19%.

In the case of `C[C@]12CC[C@@H]3c4ccc(OCc5ccccc5)cc4CC[C@H]3[C@@H]1C[C@@H](CN=[N+]=[N-])[C@@H]2O` [compound 3, 3], the inhibition at 10 µM in the data set on SiHa [1] was < 20%; in the data set with HeLa [2] it was 25 ± 2.26%; in the data set on MDA-MB-231 [3], 33.5 ± 2.92%; with MCF-7 [4] it was 27.3 ± 1.28%. Also, the inhibition at 30 µM came out at 86.46 ± 0.36% with SiHa [1], 93.35 ± 0.32% with HeLa [2], 89 ± 0.9% with MDA-MB-231 [3] and 92.55 ± 0.18% in the data set with MCF-7 [4].
